Assay results published in US20230312752A1 (Brown University, priority 2021, published 2023).
Structures can show the parent of a compound that is named as a salt.

Tests used:
[1] = target: CDK1 (Homo sapiens, UniProt P06493); conditions: cited from earlier work
[2] = target: CDK4 (Homo sapiens, UniProt P11802); conditions: cited from earlier work
[3] = target: CDK5 (Homo sapiens, UniProt Q00535); conditions: cited from earlier work
[4] = target: CDK6 (Homo sapiens, UniProt Q00534); design: key to the marks not given beside the values; conditions: cited from earlier work
[5] = target: CDK9 (Homo sapiens, UniProt P50750); design: key: + is used to indicate the potency of the inhibitor; ++++ > +++ > ++ > +; + is used to indicate the potency of the inhibitor; ++++ > +++ > ++ > +; + is used to indicate the potency of the inhibitor; ++++ > +++ > ++ > +; + is used to indicate the potency of the inhibitor; ++++ > +++ > ++ > +; ◯ refers to compounds with inhibitory effects on the related isoform, but without specific value; conditions: cited from earlier work
[6] = target: CDK7 (Homo sapiens, UniProt P50613); conditions: cited from earlier work
[7] = target: CDK2 (Homo sapiens, UniProt P24941); conditions: cited from earlier work
[8] = test system: ACE2; type: cell-based, human
[9] = test system: TMPRSS2, CTSL and FURIN; type: cell-based, human
[10] = test system: CLK; design: key: + is used to indicate the potency of the inhibitor; ++++ > +++ > ++ > +; + is used to indicate the potency of the inhibitor; ++++ > +++ > ++ > +; + is used to indicate the potency of the inhibitor; ++++ > +++ > ++ > +; + is used to indicate the potency of the inhibitor; ++++ > +++ > ++ > +; ◯ refers to compounds with inhibitory effects on the related isoform, but without specific value; conditions: cited from earlier work
[11] = test system: ACE2, TMPRSS2, and CTSL; test: mRNA levels in A549 cells (qRT-PCR); type: cell-based, human; conditions: 24 hr
Method: Cells were incubated with rhCHI3L1 from a commercial source (R&D Inc.) and rhCHI3L1 generated at Brown University (Brown) and compared to vehicle controls. mRNA was then extracted and the levels of mRNA for ACE2 and CTSL were evaluated by real time qRT-PCR. Levels were expressed in relationship to GAPDH controls. *p<0.05; **p<0.01 (Student's t-test).
A549 cells were incubated with the noted concentrations of rhCHI3L1 for the note amounts of time. The levels of mRNA encoding ACE2, TMPRSS2, and CTSL were assessed via qRT-PCR. The statistics compare cells incubated with vehicle control (nothing tested, NT) and cells incubated with 250 ng/ml of rhCHI3L1. […]
Total cellular RNA was obtained using TRIzol reagent (ThermoFisher Scientific) followed by RNA extraction using RNeasy Mini Kit (Qiagen, Germantown, MD) according to the manufacturer's instructions. mRNA was measured and used for real time (RT)-PCR as described previously.^79,80 The primer sequences used in these studies are summarized in Table 1. […]
In the first study, A549 cells were incubated with rhCHI3L1 from a commercial source (R&D Inc.) and rhCHI3L1 generated at Brown University (Brown). The cells were incubated for 24 hr with stimulation of rhCHI3L1 (500 ng/mL) at 37° C. mRNA was then extracted and the levels of mRNA for ACE2 and CTSL were evaluated by real time qRT-PCR and compared to vehicle controls. […]

[12] = test system: ACE2, TMPRSS2, and CTSL; test: mRNA levels in normal human small airway epithelial cells (qRT-PCR); type: cell-based; conditions: normal HSAEC, rhCHI3L1 500 ng/mL, 24 hours
Method: HSAEC were incubated with the noted concentrations of recombinant rhCHI3L1 for 24 hours. The levels of mRNA encoding ACE2, TMPRSS2, and CTSL were assessed via qRT-PCR. The levels are expressed in relationship to GAPDH controls. *p<0.05 (Student's t-test).
Total cellular RNA was obtained using TRIzol reagent (ThermoFisher Scientific) followed by RNA extraction using RNeasy Mini Kit (Qiagen, Germantown, MD) according to the manufacturer's instructions. mRNA was measured and used for real time (RT)-PCR as described previously.^79,80 The primer sequences used in these studies are summarized in Table 1. Ct values of the test genes were normalized to the internal housekeeping gene […].
In the present study, normal HSAEC were incubated with 0, 100 ng/mL, or 500 ng/mL of rhCHI3L1 for 24 hours at 37° C. The levels of mRNA encoding ACE2, TMPRSS2, and CTSL were assessed via qRT-PCR and expressed in relationship to GAPDH controls.

[13] = test system: pseudovirus containing the S protein (D614 and G614 variants); type: cell-based; conditions: Calu-3 cells, rCHI3L1 24 hours, GFP
[14] = test system: pseudovirus with the ancestral G614 S protein; type: cell-based, SARS-CoV-2
[15] = test system: ACE2; test: Immunocytochemical evaluation of ACE2 in Calu-3 cells; type: cell-based, human; conditions: CHI3L1 250 ng/mL; double labeled ICC
[16] = test system: pseudoviruses with delta S proteins; type: cell-based, SARS-CoV-2
[17] = Calu-3 cells, rhCHI3L1 250 ng/mL, 24 hours, vs vehicle

Chain of CDK6 (Q00534 whole entry, canonical isoform): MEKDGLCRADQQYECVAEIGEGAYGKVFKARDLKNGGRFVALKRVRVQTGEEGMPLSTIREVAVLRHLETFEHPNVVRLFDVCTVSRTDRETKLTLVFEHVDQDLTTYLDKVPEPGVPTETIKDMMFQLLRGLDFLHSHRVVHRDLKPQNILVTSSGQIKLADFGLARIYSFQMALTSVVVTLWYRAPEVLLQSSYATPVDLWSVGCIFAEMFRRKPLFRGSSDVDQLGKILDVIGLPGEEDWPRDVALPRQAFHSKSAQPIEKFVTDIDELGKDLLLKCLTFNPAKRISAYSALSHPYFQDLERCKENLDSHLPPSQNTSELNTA
Chain of CDK6 (P30281 whole entry, further chain, canonical isoform): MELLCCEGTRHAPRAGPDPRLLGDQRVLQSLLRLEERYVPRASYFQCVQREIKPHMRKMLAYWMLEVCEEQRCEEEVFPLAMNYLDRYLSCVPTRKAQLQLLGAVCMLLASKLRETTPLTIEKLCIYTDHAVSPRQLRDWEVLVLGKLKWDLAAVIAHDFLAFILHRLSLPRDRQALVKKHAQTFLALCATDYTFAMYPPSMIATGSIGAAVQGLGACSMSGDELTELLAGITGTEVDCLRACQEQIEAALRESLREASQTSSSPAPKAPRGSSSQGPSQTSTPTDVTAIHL
Chain of CDK9 (P50750 whole entry, canonical isoform): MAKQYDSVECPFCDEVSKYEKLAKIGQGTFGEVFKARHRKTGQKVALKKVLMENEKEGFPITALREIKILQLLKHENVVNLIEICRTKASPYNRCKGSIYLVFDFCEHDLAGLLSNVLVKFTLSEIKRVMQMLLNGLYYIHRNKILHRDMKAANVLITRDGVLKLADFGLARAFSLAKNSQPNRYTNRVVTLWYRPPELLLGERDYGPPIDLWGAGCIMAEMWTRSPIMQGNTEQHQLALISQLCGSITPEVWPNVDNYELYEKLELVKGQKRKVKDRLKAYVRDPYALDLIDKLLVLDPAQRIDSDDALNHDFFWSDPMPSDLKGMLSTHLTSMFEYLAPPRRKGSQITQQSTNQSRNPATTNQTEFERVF
Chain of CDK9 (O60563 whole entry, further chain, canonical isoform): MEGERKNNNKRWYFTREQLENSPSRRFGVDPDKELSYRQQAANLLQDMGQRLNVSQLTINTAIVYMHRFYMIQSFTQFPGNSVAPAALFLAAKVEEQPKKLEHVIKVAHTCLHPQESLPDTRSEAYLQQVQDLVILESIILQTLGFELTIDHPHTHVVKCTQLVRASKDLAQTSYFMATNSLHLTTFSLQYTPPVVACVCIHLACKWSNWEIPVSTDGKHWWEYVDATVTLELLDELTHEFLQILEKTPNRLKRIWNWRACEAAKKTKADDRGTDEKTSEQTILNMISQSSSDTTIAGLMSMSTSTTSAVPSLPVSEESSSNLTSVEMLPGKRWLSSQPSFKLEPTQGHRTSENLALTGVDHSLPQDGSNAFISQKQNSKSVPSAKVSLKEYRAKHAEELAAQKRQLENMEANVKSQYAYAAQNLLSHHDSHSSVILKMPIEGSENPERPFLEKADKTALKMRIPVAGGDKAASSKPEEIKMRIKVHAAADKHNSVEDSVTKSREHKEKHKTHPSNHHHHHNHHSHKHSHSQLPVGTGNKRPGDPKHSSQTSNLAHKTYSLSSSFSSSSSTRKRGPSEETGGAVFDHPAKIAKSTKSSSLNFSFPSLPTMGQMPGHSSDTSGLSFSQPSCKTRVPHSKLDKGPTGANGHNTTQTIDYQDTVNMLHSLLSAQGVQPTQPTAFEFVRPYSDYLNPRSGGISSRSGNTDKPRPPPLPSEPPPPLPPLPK
Chain of CDK1 (P06493 whole entry, species assumed): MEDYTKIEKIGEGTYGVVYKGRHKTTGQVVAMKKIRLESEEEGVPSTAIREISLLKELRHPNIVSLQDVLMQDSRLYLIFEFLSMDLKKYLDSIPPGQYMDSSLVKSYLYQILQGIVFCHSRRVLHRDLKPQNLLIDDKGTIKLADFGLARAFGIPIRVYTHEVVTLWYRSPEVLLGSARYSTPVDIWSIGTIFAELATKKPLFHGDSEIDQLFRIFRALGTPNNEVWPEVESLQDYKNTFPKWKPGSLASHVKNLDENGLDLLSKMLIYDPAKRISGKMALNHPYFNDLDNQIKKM
Chain of CDK1 (P14635 whole entry partner, species assumed): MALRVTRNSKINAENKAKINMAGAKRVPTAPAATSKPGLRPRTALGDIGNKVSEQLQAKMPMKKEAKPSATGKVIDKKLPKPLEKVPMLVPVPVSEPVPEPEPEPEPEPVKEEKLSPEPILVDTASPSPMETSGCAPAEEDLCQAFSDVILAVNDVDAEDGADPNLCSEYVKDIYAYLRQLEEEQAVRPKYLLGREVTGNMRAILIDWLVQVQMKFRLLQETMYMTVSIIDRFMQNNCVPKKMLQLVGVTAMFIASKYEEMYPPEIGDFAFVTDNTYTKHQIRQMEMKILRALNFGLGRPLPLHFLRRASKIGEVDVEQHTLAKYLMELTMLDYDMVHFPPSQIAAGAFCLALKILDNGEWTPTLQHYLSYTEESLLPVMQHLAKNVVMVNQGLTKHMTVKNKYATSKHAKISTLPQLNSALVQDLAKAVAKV
Chain of CDK5 (Q15078 99-307): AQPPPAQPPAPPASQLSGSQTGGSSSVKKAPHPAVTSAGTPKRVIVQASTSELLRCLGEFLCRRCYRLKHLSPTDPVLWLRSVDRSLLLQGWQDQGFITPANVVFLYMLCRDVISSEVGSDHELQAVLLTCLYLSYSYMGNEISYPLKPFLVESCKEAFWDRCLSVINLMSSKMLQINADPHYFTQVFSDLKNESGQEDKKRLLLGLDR
Chain of CDK5 (Q00535 whole entry): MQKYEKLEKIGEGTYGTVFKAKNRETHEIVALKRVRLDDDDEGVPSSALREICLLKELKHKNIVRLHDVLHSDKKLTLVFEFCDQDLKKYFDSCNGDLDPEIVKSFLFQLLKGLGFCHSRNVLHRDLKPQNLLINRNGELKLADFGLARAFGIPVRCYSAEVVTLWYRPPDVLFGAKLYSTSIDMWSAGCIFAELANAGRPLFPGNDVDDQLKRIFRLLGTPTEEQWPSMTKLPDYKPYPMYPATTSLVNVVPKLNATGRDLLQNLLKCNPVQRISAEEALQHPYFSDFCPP
Chain of CDK4 (P11802 whole entry, species assumed): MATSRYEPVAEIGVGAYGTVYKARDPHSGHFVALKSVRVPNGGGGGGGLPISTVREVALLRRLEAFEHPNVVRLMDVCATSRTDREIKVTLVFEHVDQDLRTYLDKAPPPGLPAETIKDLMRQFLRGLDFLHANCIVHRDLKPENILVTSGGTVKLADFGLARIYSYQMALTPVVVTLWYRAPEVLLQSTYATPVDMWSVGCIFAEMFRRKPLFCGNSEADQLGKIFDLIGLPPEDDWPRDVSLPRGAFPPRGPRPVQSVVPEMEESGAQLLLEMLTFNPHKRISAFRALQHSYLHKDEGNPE
Chain of CDK4 (P24385 whole entry partner, species assumed): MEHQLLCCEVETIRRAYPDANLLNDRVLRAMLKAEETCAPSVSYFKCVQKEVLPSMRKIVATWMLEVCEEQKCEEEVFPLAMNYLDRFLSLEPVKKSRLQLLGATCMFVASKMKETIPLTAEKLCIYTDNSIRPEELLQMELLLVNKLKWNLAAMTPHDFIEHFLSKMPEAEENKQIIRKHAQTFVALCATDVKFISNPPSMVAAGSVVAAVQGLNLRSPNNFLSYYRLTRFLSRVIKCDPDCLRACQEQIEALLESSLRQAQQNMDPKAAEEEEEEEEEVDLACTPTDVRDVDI
Chain of CDK7 (P50613 whole entry): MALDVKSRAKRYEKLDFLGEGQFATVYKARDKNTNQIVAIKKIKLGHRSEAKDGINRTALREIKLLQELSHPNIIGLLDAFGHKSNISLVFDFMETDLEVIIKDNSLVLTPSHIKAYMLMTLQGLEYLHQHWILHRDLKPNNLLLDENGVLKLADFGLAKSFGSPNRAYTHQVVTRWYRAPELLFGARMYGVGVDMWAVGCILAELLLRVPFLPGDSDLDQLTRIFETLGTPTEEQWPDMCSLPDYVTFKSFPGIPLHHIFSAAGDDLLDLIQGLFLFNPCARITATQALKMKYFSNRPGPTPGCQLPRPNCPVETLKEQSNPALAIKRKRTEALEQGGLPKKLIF
Chain of CDK7 (P51946 whole entry, further chain): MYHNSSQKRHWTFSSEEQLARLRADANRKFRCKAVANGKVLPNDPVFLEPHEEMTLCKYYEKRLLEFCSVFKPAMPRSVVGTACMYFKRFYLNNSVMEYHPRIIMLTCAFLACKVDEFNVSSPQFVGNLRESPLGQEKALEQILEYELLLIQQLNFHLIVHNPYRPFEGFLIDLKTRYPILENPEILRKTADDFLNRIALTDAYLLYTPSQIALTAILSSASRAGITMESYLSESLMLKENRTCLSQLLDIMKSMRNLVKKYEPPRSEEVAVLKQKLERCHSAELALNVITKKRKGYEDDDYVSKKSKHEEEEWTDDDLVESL
Chain of CDK7 (P51948 whole entry, further chain): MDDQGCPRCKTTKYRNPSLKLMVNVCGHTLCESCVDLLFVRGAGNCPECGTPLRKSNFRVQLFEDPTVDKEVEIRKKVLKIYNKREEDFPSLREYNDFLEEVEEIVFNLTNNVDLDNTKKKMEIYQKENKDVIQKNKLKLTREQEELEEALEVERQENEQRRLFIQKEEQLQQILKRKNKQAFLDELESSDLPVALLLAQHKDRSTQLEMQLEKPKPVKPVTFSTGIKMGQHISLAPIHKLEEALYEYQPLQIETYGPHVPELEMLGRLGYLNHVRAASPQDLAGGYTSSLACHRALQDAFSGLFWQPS

Molecule	Inhibitory potency CDK1 [1]	Inhibitory potency CDK4 [2]	Inhibitory potency CDK2 [7]	other results
C[C@H]1CC[C@H](n2c3cnccc3c3cnc(Nc4ccc5c(n4)CCN(C(=O)CO)C5)nc32)CC1 [AMG-925]	+	++++		
O=C(NC1CCNCC1)c1[nH]ncc1NC(=O)c1c(Cl)cccc1Cl [AT7519 HCl]	++	++		Inhibitory potency CDK5 [3]: +++; Inhibitory potency CDK6 [4]: ++; Inhibitory potency CDK9 [5]: ++++
O=C(NC1CCNCC1)c1[nH]ncc1NC(=O)c1c(Cl)cccc1Cl [AT7519]				Inhibitory potency CDK7 [6]: +
Cc1ncc(-c2ccnc(Nc3ccc(S(C)(=O)=O)cc3)n2)n1C(C)C [AZD5438]	+++			Inhibitory potency CDK9 [5]: +++
CCCCOc1c(C(=O)c2c(F)cc(C)cc2F)c[nH]c2nncc1-2 [BMS-265246]	++++	++	++++	
COc1ccc(CNc2nc(N(CCO)CCO)nc3c2ncn3C(C)C)cc1 [CVT 313]	+	+	+	
CN1CC[C@H](c2c(O)cc(O)c3c(=O)cc(-c4ccccc4Cl)oc23)[C@H](O)C1 [Flavopiridol]	+++	+++	+++	ability of CHI3L1 to stimulate ACE2 mRNA accumulation [8]: potently inhibited; levels of basal ACE2 expression [8]: diminished; basal and CHI3L1-stimulated expression of TMPRSS2, CTSL and FURIN [9]: potently decreased; Inhibitory potency CDK6 [4]: ++; Inhibitory potency CDK7 [6]: +
Nc1nc(Nc2ccc(S(N)(=O)=O)cc2)nn1C(=O)c1c(F)cccc1F [JNJ-7706621]	++++	+	++++	Inhibitory potency CDK6 [4]: ++
Cn1cc(-c2cnn3c(N)c(Br)c([C@@H]4CCCNC4)nc23)cn1 [MK-8776]			++	
CNC(=O)c1nn(C)c2c1C(C)(C)Cc1cnc(Nc3ccc(N4CCN(C)CC4)cc3)nc1-2 [Milciclib]	+	++	+++	Inhibitory potency CDK5 [3]: +; Inhibitory potency CDK7 [6]: ++
CC(C)CC(=O)Nc1[nH]nc2c1CN(C(=O)C1CCN(C)CC1)C2(C)C [PHA-793887]	++	++	++++	Inhibitory potency CDK5 [3]: ++++; Inhibitory potency CDK7 [6]: ++++; Inhibitory potency CDK9 [5]: ++
CC(C)(C)c1cnc(CSc2cnc(NC(=O)C3CCNCC3)s2)o1 [SNS-032]	+			Inhibitory potency CDK5 [3]: +; Inhibitory potency CDK9 [5]: ++++
COc1c(O)cc(O)c2c(=O)cc(-c3ccccc3)oc12 [Wogonin]				Inhibitory potency CDK9 [5]: ◯
CGP60474	+++		+++	
Kenpaulione	+		+	Inhibitory potency CDK5 [3]: +
LDC000067	+	+		Inhibitory potency CDK9 [5]: +++
ML167				Inhibitory potency CLK [10]: ++
NU2058	+			
NU6027	+			
NU 6102	+++	+		
NVP-LCQ195	++++		+++	Inhibitory potency CDK5 [3]: ++++; Inhibitory potency CDK9 [5]: ◯; Inhibitory potency CLK [10]: ◯
PHA-767491	++		++	Inhibitory potency CDK5 [3]: +; Inhibitory potency CDK9 [5]: +++
Palbociclib Isethionate				Inhibitory potency CDK6 [4]: +++
Purvalanol A		+		
Purvalanol B				Inhibitory potency CDK5 [3]: ++++
Ro-3306	+++			
TG003				Inhibitory potency CLK [10]: +++
rhCHI3L1: recombinant human CHI3L1 (chitinase 3 like 1) protein, from R&D Inc. or generated at Brown University				levels of mRNA encoding ACE2 [8, 17]: significantly upregulated; levels of mRNA encoding TMPRSS2, CTSL and FURIN [9, 17]: significantly upregulated; levels of mRNA encoding Ace2 and cathepsin L (CTSL) ([11]; rhCHI3L1 500 ng/mL, 37° C.): significantly upregulated; levels of mRNA encoding ACE2, TMPRSS2, and CTSL ([11]; rhCHI3L1 250 or 500 ng/mL): significantly upregulated; levels of mRNA encoding ACE2, TMPRSS2, and CTSL [12]: significantly upregulated; cellular integration of S proteins [13]: stimulated; uptake of pseudovirus [14]: potent stimulator; Calu-3 cell ACE2 accumulation [15]: augmented; delta pseudovirus infection [16]: augmented
